Results from PMC9313812, “The Pseudo‐Natural Product Rhonin Targets RHOGDI” (Angewandte Chemie (International Ed. in English), 2022).

Columns and labels:
[1] = Parallel artificial membrane permeability assay (PAMPA); type: in vitro ADME; details: initial 500 µM in donor, 20 h
Experimental: 500 µM final compound concentrations. The kinetic solubility of the compound solutions in HEPES buffer pH 7.4 were then compared to a solution in the organic solvent (ACN) after vigorous shaking on an orbital shaker at room temperature for 90 min. Therefore, the spectrum 250 -500 nm was recorded using the Spectramax plate reader. Precipitated material was removed by filtration prior to analysis. Each sample was tested in triplicate.
Aqueous solubility was also determined using a turbidimetric assay. DMSO stock solutions were diluted in DMSO to produce a range of concentrations. These were then added to PBS buffer pH7.4 (final test compound concentrations: 1 µM, 3 µM, 10 µM, 30 µM, 100 µM, 1% final DMSO concentration, 7 replicates per concentration). After 2 h incubation period at room temperature, the absorbance at 620 nm was read for each concentration and each replicate using a Spectramax plate reader.
Permeability through artificial membranes assay (PAMPA)
Permeability through artificial membranes (phospholipid/cholesterol in dodecane) was assessed at an initial compound concentration of 500 µM in the donor compartment. Absorption of the receiver wells was determined by spectrophotometrical measurement using a Spectramax absorbance plate reader after 20 h of incubation. Permeation was calculated by normalization of compound flux across a blank filter. […]

RHO GTPases = experiment: Immunoblotting of total cellular RHO GTPase levels; type: cell-based; details: 10 μM, 24 h
[2] = system: GTP-bound RHO GTPases (RHOA, RAC1, CDC42); experiment: G-LISA activation assays; type: cell-based; details: 10 μM, 24 h
Experimental: 40,000 x g for 30 min at 4°C. Supernatants were collected as cytoplasmic fraction and pellets were resuspended into a homogenization buffer (0.25 M sucrose, 20 mM Tris/HCl pH 7.4, 25 mM KCl, 5 mM MgCl2) and further centrifuged (2 h at 100,000 x g) using an iodixanol (OptiPrep, Axis Shield) gradient solution. Obtained fractions were used for immunoblotting.
NIH/3T3 cells were seeded in a 96 plate (10,000 cell per well/ plate name: Essen Bioscience NO 4379). NIH/3T3 cells were grown till 80% confluence and then serum starved (0 % FCS) for 24 h. Scratch was performed using the Incucyte Woundmaker Tool. Next, 10 µM Rhonin was added to the wells. As controls, 2 µg/ml RHO inhibitor I (cat#CT04/ cytoskeleton) and 0.5% DMSO were used. Cell migration was monitored using IncuCyte ZOOM for a period of 48 h. The images were analyzed by the Incucyte Scratch Wound Analysis Software.
G-LISA activation assays for RHOA, RAC1 and CDC42 […]
GTPase primary antibody (RAC1, CDC42 or RHOA) was added and the tubes and were incubated for 45 min at room temperature. […] Absorption was detected at 490 nm using a plate reader (Tecan Sparks).
Aqueous solubility of compounds was assessed by determination of the kinetic solubility of a test compound in aqueous buffer compared to a solution in organic solvent (acetonitrile). […]

COC(=O)C1(C(CC(=O)c2cccnc2)c2ccccc2)N=C(c2ccc(Br)cc2)C2C(=O)N(C)C(=O)C21 (stereo not drawn) [7l]
permeability, flux in PAMPA [1]: 41.1% | Total levels of the three RHO GTPases (in words) (RHO GTPases): did not alter the total levels | Levels of GTP-bound RHO GTPases (in words) [2]: increased
